≈ marks a conversion by molar mass, not a printed value. Values belong to the compound of their own block, whether it stands above or below them.
Assays:
P. falciparum 3D7 strain = assay: cell-based P. falciparum proliferation assay, 3D7 strain; settings: Plasmodium falciparum; chloroquine sensitive 3D7 strain; means of two experiments
Excerpt: (§1) Currently there is a need for novel chemical scaffolds with different mechanisms of action, since most of the current approved antimalarial drugs belong to the aminoquinoline family. In order to find new chemical scaffolds, we initiated a compound screen using our in-house kinase inhibitor collection and subjected them to a cell-based of Plasmodium falciparum proliferation assay[5,6] We envisioned that the hits arising from this screen can be rapidly optimized by leveraging our past experiences with these compounds series in alternative target-classes/indications. Furthermore, we thought that it would be prudent to remove the human kinase activity early on during the compound optimization phase to negate the possibility of toxicity arising from host-related off-target activities (Scheme 1).

P. falciparum W2 strain = assay: cell-based P. falciparum proliferation assay, W2 strain; parameters: species or system Plasmodium falciparum; settings: for EC50: Plasmodium falciparum, W2, read-out: P. falciparum W2 strain EC50
Excerpt: as §1
One important aspect of antimalarial drug discovery is to identify agents that are active against the drug-resistant parasites. […] While most of these resistance phenotypes are due to point mutations in the drug target, the W2 strain also contains an amplification of the P. falciparum multidrug resistance transporter.[10]

[1] = snapshot PK in mice, single oral dose; assay type: in vivo; settings: mice balb/c, 20 mg/kg orally, PEG300/D5W 3:1 solution, free base; for AUC(0-t) / Cmax at 5 h / Tmax at 5 h: mouse, in vivo, po
Experimental: Mice were dosed a single dose of 20 mg/kg orally and their exposure levels were monitored over a period of 5 h and results are summarized in Table 6.[11]
[11] Snapshot PK is developed and used by GNF pharmacology group as a rapid pharmacokinetic screening approach. The pharmacokinetic parameters of the compounds are studied in a single mode of administration (generally PO arm) over a period of 5 h. The study is carried out on two animals and the samples are pooled together at each time point. This high throughput approach offers exposure levels with reasonable confidence without committing to extensive resources. For details, see: Liu, B.; Chang, J.; Gordon, W. P.; Isbell, J.; Zhou, Yi.; Tuntland, T. Drug Discovery Today2008, 13, 360–367.

P. falciparum strain Dd2 = assay: P. falciparum proliferation assay, Dd2 strain; assay type: cell-based; settings: Plasmodium falciparum
Excerpt: as §1
(§2) Compound 32 was profiled in an extended panel of 15 drug resistant strains (Table 5) and against a 6-cell line toxicity panel.

P. falciparum strain K1 = assay: P. falciparum proliferation assay, K1 strain; assay type: cell-based; settings: Plasmodium falciparum
Excerpt: as §1, §2

[2] = test system: P. falciparum strain C188; assay: P. falciparum proliferation assay, C188 strain; assay type: cell-based; settings: Plasmodium falciparum
Excerpt: as §1, §2

P. falciparum strain FCB = assay: P. falciparum proliferation assay, FCB strain; assay type: cell-based; settings: Plasmodium falciparum
Excerpt: as §1, §2

[3] = test system: P. falciparum strain Camp R; assay: P. falciparum proliferation assay, Camp R strain; assay type: cell-based; settings: Plasmodium falciparum
Excerpt: as §1, §2

P. falciparum strain 7G8 = assay: P. falciparum proliferation assay, 7G8 strain; assay type: cell-based; settings: Plasmodium falciparum
Excerpt: as §1, §2

[4] = test system: P. falciparum strain NF54; assay: P. falciparum proliferation assay, NF54 strain; assay type: cell-based; settings: Plasmodium falciparum
Excerpt: as §1, §2

15 P. falciparum strains = assay: extended panel of 15 drug resistant strains; assay type: cell-based, Plasmodium falciparum; settings: 15 strains, potencies relative to each other
Excerpt: as §2

[5] = metabolic stability in mouse microsomes; assay type: in vitro ADME; settings: preliminary
Excerpt: (§3) We also performed preliminary solubility and metabolic stability measurements on compound 32.

P. falciparum strain HB3 = assay: P. falciparum proliferation assay, HB3 strain; assay type: cell-based; settings: Plasmodium falciparum
Excerpt: as §1, §2

CHO = assay type: cell-based; settings: Chinese hamster
Excerpt: as §2

293T = assay type: cell-based; settings: human
Excerpt: as §2

HeLa = assay type: cell-based; settings: human
Excerpt: as §2

HEp2 = assay type: cell-based; settings: human
Excerpt: as §2

Ba/F3 = assay type: cell-based; settings: mouse
Excerpt: as §2

Huh7 = assay type: cell-based; settings: human
Excerpt: as §2

[6] = HT-thermodynamic solubility; assay type: physicochemical; settings: pH 6.8; pH6.8, free base; preliminary
Excerpt: as §3

P. falciparum strain D10 = assay: P. falciparum proliferation assay, D10 strain; assay type: cell-based; settings: Plasmodium falciparum
Excerpt: as §1, §2

[7] = test system: P. falciparum strain FCR3; assay: P. falciparum proliferation assay, FCR3 strain; assay type: cell-based; settings: Plasmodium falciparum
Excerpt: as §1, §2

[8] = 6-cell line toxicity panel, selectivity index; assay type: cell-based; settings: cytotoxicity TC50 vs antiplasmodial potency; read-out: selectivity index (SI)
Excerpt: as §2

[9] = test system: P. falciparum strain 3BAG; assay: P. falciparum proliferation assay, 3BAG strain; assay type: cell-based; settings: Plasmodium falciparum
Excerpt: as §1, §2

P. falciparum strain D6 = assay: P. falciparum proliferation assay, D6 strain; assay type: cell-based; settings: Plasmodium falciparum
Excerpt: as §1, §2

[10] = test system: P. falciparum strain TM91C235; assay: P. falciparum proliferation assay, TM91C235 strain; assay type: cell-based; settings: Plasmodium falciparum
Excerpt: as §1, §2

- EC50 (P. falciparum 3D7 strain): 6480 nM
Compound: CCCNC(=O)c1cc(N2CCC(N3CCCC3)CC2)cc(C(F)(F)F)c1 [Compound 4]

- EC50 (P. falciparum 3D7 strain): 2160 nM
Compound: O=C(Nc1ccncn1)c1cc(N2CCC(N3CCCC3)CC2)cc(C(F)(F)F)c1 [Compound 5]

- EC50 (P. falciparum 3D7 strain): 1720 nM
Compound: O=C(Nc1ccccc1Cl)c1cc(N2CCC(N3CCCC3)CC2)cc(C(F)(F)F)c1 [Compound 6]

- EC50 (P. falciparum 3D7 strain): 114 nM
Compound: O=C(Nc1ccc(Cl)cc1)c1cc(N2CCC(N3CCCC3)CC2)cc(C(F)(F)F)c1 [Compound 7]

Compound: O=C(Nc1cccc(Cl)c1)c1cc(N2CCC(N3CCCC3)CC2)cc(C(F)(F)F)c1 [Compound 8]
- EC50 (P. falciparum 3D7 strain): 134 nM
- EC50 (P. falciparum W2 strain): 888 nM
- shift in potency between 3D7 and W2 (P. falciparum W2 strain; W2 vs 3D7): ~6 fold
- AUC(0–5h)/dose [1]: 5.31 (min ug/mL)/(mg/kg)
- AUC(0-t) [1]: 3.92 µM·h
- Cmax at 5 h [1]: 1360 nM
- Tmax at 5 h [1]: 1 h

- EC50 (P. falciparum 3D7 strain): 146 nM
Compound: N#Cc1cccc(NC(=O)c2cc(N3CCC(N4CCCC4)CC3)cc(C(F)(F)F)c2)c1 [Compound 9]

- EC50 (P. falciparum 3D7 strain): 174 nM
Compound: O=C(Nc1cccc(C(F)(F)F)c1)c1cc(N2CCC(N3CCCC3)CC2)cc(C(F)(F)F)c1 [Compound 10]

- EC50 (P. falciparum 3D7 strain): 54 nM
Compound: O=C(Nc1ccc(Cl)c(Cl)c1)c1cc(N2CCC(N3CCCC3)CC2)cc(C(F)(F)F)c1 [Compound 11]

- EC50 (P. falciparum 3D7 strain): 98 nM
Compound: O=C(Nc1ccc(Br)c(Cl)c1)c1cc(N2CCC(N3CCCC3)CC2)cc(C(F)(F)F)c1 [Compound 12]

- EC50 (P. falciparum 3D7 strain): 48 nM
- AUC(0–5h)/dose [1]: 7.01 (min ug/mL)/(mg/kg)
- AUC(0-t) [1]: 4.81 µM·h
- Cmax at 5 h [1]: 1640 nM
- Tmax at 5 h [1]: 5 h
Compound: O=C(Nc1cc(Cl)cc(Cl)c1)c1cc(N2CCC(N3CCCC3)CC2)cc(C(F)(F)F)c1 [Compound 13]

- EC50 (P. falciparum 3D7 strain): 201 nM
- AUC(0–5h)/dose [1]: 6.94 (min ug/mL)/(mg/kg)
- AUC(0-t) [1]: 4.77 µM·h
- Cmax at 5 h [1]: 1170 nM
- Tmax at 5 h [1]: 3 h
Compound: O=C(Nc1cc(N2CCC(N3CCCC3)CC2)cc(C(F)(F)F)c1)c1cccc(C(F)(F)F)c1 [Compound 14]

- EC50 (P. falciparum 3D7 strain): 402 nM
Compound: N#Cc1cccc(C(=O)Nc2cc(N3CCC(N4CCCC4)CC3)cc(C(F)(F)F)c2)c1 [Compound 15]

- EC50 (P. falciparum 3D7 strain): 8250 nM
Compound: O=S(=O)(Nc1cc(N2CCC(N3CCCC3)CC2)cc(C(F)(F)F)c1)c1cccc(C(F)(F)F)c1 [Compound 16]

- EC50 (P. falciparum 3D7 strain): 4680 nM
Compound: CN(C(=O)c1cc(N2CCC(N3CCCC3)CC2)cc(C(F)(F)F)c1)c1cccc(Cl)c1 [Compound 17]

- EC50 (P. falciparum 3D7 strain): 452 nM
Compound: O=C(Nc1cccc(C(F)(F)F)c1)Nc1cc(N2CCC(N3CCCC3)CC2)cc(C(F)(F)F)c1 [Compound 18]

- EC50 (P. falciparum 3D7 strain): 328 nM
Compound: O=C(Nc1cccc(Cl)c1)Nc1cc(N2CCC(N3CCCC3)CC2)cc(C(F)(F)F)c1 [Compound 19]

- EC50 (P. falciparum 3D7 strain): 1980 nM
Compound: FC(F)(F)c1cccc(CNc2cc(N3CCC(N4CCCC4)CC3)cc(C(F)(F)F)c2)c1 [Compound 20]

- EC50 (P. falciparum 3D7 strain): 638 nM
Compound: FC(F)(F)c1cccc(Nc2cc(N3CCC(N4CCCC4)CC3)cc(C(F)(F)F)c2)c1 [Compound 21]

- EC50 (P. falciparum 3D7 strain): 734 nM
Compound: O=C(NCc1cccc(C(F)(F)F)c1)c1cc(N2CCC(N3CCCC3)CC2)cc(C(F)(F)F)c1 [Compound 22]

- EC50 (P. falciparum 3D7 strain): 423 nM
Compound: O=C(NC1(c2cccc(C(F)(F)F)c2)CC1)c1cc(N2CCC(N3CCCC3)CC2)cc(C(F)(F)F)c1 [Compound 23]

- EC50 (P. falciparum 3D7 strain): 766 nM
Compound: O=C(Nc1cccc(Cl)c1)c1cc(F)cc(N2CCC(N3CCCC3)CC2)c1 [Compound 24]

- EC50 (P. falciparum 3D7 strain): 5880 nM
Compound: O=C(Nc1cccc(Cl)c1)c1cccc(N2CCC(N3CCCC3)CC2)c1 [Compound 25]

- EC50 (P. falciparum 3D7 strain): 674 nM
Compound: O=C(Nc1cccc(Cl)c1)c1ccnc(N2CCC(N3CCCC3)CC2)c1 [Compound 26]

- EC50 (P. falciparum 3D7 strain): 1670 nM
Compound: O=C(Nc1cccc(Cl)c1)c1cc(C(F)(F)F)nc(N2CCC(N3CCCC3)CC2)n1 [Compound 27]

- EC50 (P. falciparum 3D7 strain): 2980 nM
Compound: Cc1cc(C(=O)Nc2cccc(Cl)c2)nc(N2CCC(N3CCCC3)CC2)n1 [Compound 28]

- EC50 (P. falciparum 3D7 strain): 2080 nM
Compound: CC(C)(C)c1cc(C(=O)Nc2cccc(Cl)c2)nc(N2CCC(N3CCCC3)CC2)n1 [Compound 29]

Compound: O=C(Nc1cccc(Cl)c1)c1cc(N2CCC(N3CCCCC3)CC2)cc(C(F)(F)F)c1 [Compound 30]
- EC50 (P. falciparum 3D7 strain): 82 nM
- EC50 (P. falciparum W2 strain): 296 nM
- AUC(0–5h)/dose [1]: 6.10 (min ug/mL)/(mg/kg)
- AUC(0-t) [1]: 4.37 µM·h
- Cmax at 5 h [1]: 1370 nM
- Tmax at 5 h [1]: 1 h

Compound: O=C(Nc1cccc(C(F)(F)F)c1)c1cc(N2CCC(N3CCCCC3)CC2)cc(C(F)(F)F)c1 [Compound 31]
- EC50 (P. falciparum 3D7 strain): 149 nM
- EC50 (P. falciparum W2 strain): 299 nM

Compound: CC1CCN(C2CCN(c3cc(C(=O)Nc4cccc(Cl)c4)cc(C(F)(F)F)c3)CC2)CC1 [Compound 32]
- EC50 (P. falciparum strain Dd2): 141 nM
- EC50 (P. falciparum 3D7 strain): 140 nM
- EC50 (P. falciparum strain K1): 150 nM
- EC50 [2]: 83 nM
- EC50 (P. falciparum strain FCB): 306 nM
- EC50 [3]: 138 nM
- EC50 (P. falciparum strain 7G8): 309 nM
- EC50 [4]: 104 nM
- spread of potencies across the strain panel (15 P. falciparum strains): ≤ 3 fold
- extraction ratio [5]: 0.383 ± 0.04
- microsomal CLint [5]: 21.4 µL/min/mg
- EC50 (P. falciparum strain HB3): 146 nM
- cytotoxicity TC50 (CHO): greater than 8 μM
- cytotoxicity TC50 (293T): greater than 8 μM
- cytotoxicity TC50 (HeLa): greater than 8 μM
- cytotoxicity TC50 (HEp2): greater than 8 μM
- cytotoxicity TC50 (Ba/F3): greater than 8 μM
- cytotoxicity TC50 (Huh7): greater than 8 μM
- solubility thermodynamic [6]: 26 µg/mL (≈ 54.2 µM)
- EC50 (P. falciparum strain D10): 94 nM
- EC50 [7]: 218 nM
- selectivity ratio [8]: > 20
- EC50 (P. falciparum W2 strain): 323 nM
- EC50 [9]: 268 nM
- EC50 (P. falciparum strain D6): 81 nM
- AUC(0–5h)/dose [1]: 11.42 (min ug/mL)/(mg/kg)
- AUC(0-t) [1]: 7.93 µM·h
- Cmax at 5 h [1]: 2280 nM
- Tmax at 5 h [1]: 5 h
- EC50 [10]: 120 nM

Compound: O=C(Nc1cccc(C(F)(F)F)c1)c1cc(N2CCC(N3CCCCC3=O)CC2)cc(C(F)(F)F)c1 [Compound 33]
- EC50 (P. falciparum 3D7 strain): 1490 nM
- EC50 (P. falciparum W2 strain): 1410 nM

Compound: CC1CCCN(C2CCN(c3cc(C(=O)Nc4cccc(C(F)(F)F)c4)cc(C(F)(F)F)c3)CC2)C1 (stereo not shown) [Compound 34]
- EC50 (P. falciparum 3D7 strain): 58 nM
- EC50 (P. falciparum W2 strain): 211 nM

Compound: O=C(Nc1cccc(C(F)(F)F)c1)c1cc(N2CCc3ccccc3C2)cc(C(F)(F)F)c1 [Compound 35]
- EC50 (P. falciparum 3D7 strain): 175 nM
- EC50 (P. falciparum W2 strain): 635 nM
- AUC(0–5h)/dose [1]: 2.33 (min ug/mL)/(mg/kg)
- AUC(0-t) [1]: 1.67 µM·h
- Cmax at 5 h [1]: 672 nM
- Tmax at 5 h [1]: 0.5 h
